# Laboratory results reported in US6489320B1, “5, 5-disubstituted-1, 5-dihydro-4, 1-benzoxazepin-2 (3H)-ones useful as HIV reverse transcriptase inhibitors” (Bristol-Myers Squibb Pharma Company, priority 1997, dated 2002).
# System: HIV-1 (RF)
# Assay: HIV RNA assay: microplate based compound evaluation in HIV-1 infected MT-2 cells
# Assay type: cell-based
# Details: Human immunodeficiency virus 1, MT2, 72 h; HIV-1 (RF) infected MT-2 cells, 3 days; virus dilutions selected to give this value (standardization of inoculum); read-out: IC90 value (concentration of compound required to reduce the HIV RNA level by 90%)
# Protocol: Plasmid pDAB 72 containing both gag and pol sequences of BH10 (bp 113-1816) cloned into PTZ 19R was prepared according to Erickson-Viitanen et al. AIDS Research and Human Retroviruses 1989, 5, 577. The plasmid was linearized with Bam HI prior to the generation of in vitro RNA transcripts using the Riboprobe Gemini system II kit (Promega) with T7 RNA polymerase. Synthesized RNA was purified by treatment with RNase free DNAse (Promega), phenol-chloroform extraction, and ethanol precipitation. RNA transcripts were dissolved in water, and stored at −70° C. The concentration of RNA was determined from the A260.
# Biotinylated capture probes were purified by HPLC after synthesis on an Applied Biosystems (Foster City, Calif.) DNA synthesizer by addition of biotin to the 5′ terminal end of the oligonucleotide, using the biotin-phosphoramidite reagent of Cocuzza, Tet. Lett. 1989, 30, 6287. […]
# MT-2 and MT-4 cells were maintained in RPMI 1640 supplemented with 5% fetal calf serum (FCS) for MT-2 cells or 10% FCS for MT-4 cells, 2 mM L-glutamine and 50 μg/mL gentamycin, all from Gibco. […] Infectious titers of HIV-1(RF) stocks were 1-3×10^7 PFU (plaque forming units)/mL as measured by plaque assay on MT-2 cells (see below). […]
row,IC90 [µg/mL],SMILES
1,0.2,"Nc1ccn([C@H]2CC[C@@H](CO)O2)c(=O)n1 [ddC, 2′,3′-dideoxycytidine]"

# System: not given
# Assay: not given
# Details: not given
row,melting point [°C],SMILES
1,252,"C[C@@H]1O[C@](C#CC2CC2)(C(F)(F)F)c2c(ccc3c2OCO3)NC1=O (relative stereo) [Example 52, rel-(3S,5S)-6,7-Methylenedioxy-5-(2-cyclopropylethynyl)-1,5-dihydro-3-methyl-5-(trifluoromethyl)-4,1-benzoxazepin-2(3H)-one]"
2,222 to 222.5,"O=C1Nc2ccc(F)c(F)c2[C@@](C#CC2CC2)(C(F)(F)F)O[C@H]1C1CC1 (relative stereo) [Example 46, rel-(3S,5S)-6,7-Difluoro-5-(2-cyclopropylethynyl)-1,5-dihydro-3-cyclopropyl-5-(trifluoromethyl)-4,1-benzoxazepin-2(3H)-one]"
3,236 to 237,"C[C@@H]1O[C@](/C=C/C2CC2)(C(F)(F)F)c2c(ccc3c2OCO3)NC1=O (relative stereo) [Example 54, rel-(3S,5S)-trans-6,7-Methylenedioxy-5-(2-cyclopropylethenyl)-1,5-dihydro-3-methyl-5-(trifluoromethyl)-4,1-benzoxazepin-2(3H)-one]"
4,167 to 168,"CCC#CC1(C(F)(F)F)OCC(=O)Nc2ccc(Cl)cc21 (stereo not drawn) [Example 1, 5-(1-Butynyl)-7-chloro-1,5-dihydro-5-(trifluoromethyl)-4,1-benzoxazepin-2(3H)-one]"
5,135 to 136,"CC(C)C#C[C@]1(C(F)(F)F)OCC(=O)Nc2ccc(Cl)cc21 (single isomer, unassigned) [Example 4]"
